Assays:
[1] = tested on: BT-549 (expressing wild type KRAS); assay: Proliferation Assay (Cell Viability Assay); assay type: cell-based; conditions: Homo sapiens, BT-549; Proliferation assay, BT549; read-out: BT549 IC50 (nM) TNBC
In short: (§1)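 Cells plated at 2000–5000/well overnight, then treated 2–4 days at 37 °C, 5% CO2 with compound at 10 μM single dose or serial dilutions for IC50, in 0.3% DMSO and 10% FBS. Viability read by CellTiter 96 Aqueous One (MTS); % proliferation inhibition calculated from raw data.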

A375 (wild type Kras) = assay: Proliferation Assay (Cell Viability Assay); assay type: cell-based; conditions: Homo sapiens, A-375; Proliferation assay, A375; read-out: A375 IC50 (nM) Melanoma
In short: as §1

[2] = tested on: GP2d (expressing KRas G12D mutant); assay: Proliferation Assay (Cell Viability Assay); assay type: cell-based; conditions: Homo sapiens, Proliferation assay, read-out: GP2d IC50 (nM) Colorectal
In short: as §1

[3] = tested on: NCI-H358 (expressing KRas G12C mutant); assay: Proliferation Assay (Cell Viability Assay); assay type: cell-based; conditions: Homo sapiens; Proliferation assay, NCI-H358; read-out: NCI-H358 IC50 (nM) NSCLC
In short: as §1

[4] = tested on: MM.1R (expressing wild type KRAS); assay: Proliferation Assay (Cell Viability Assay); assay type: cell-based; conditions: Homo sapiens, read-out: MM.1R IC50 (nM) Multiple Myloma
In short: as §1

[5] = Kinetic Solubility Assay in pH 7.4 Buffer + 2% DMSO; assay type: physicochemical; conditions: phosphate-buffered saline pH 7.4 with 2% DMSO, aqueous buffer, kinetic from dmso stock, 25° C., two hours
In short: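 Compound from 20 mM DMSO stock diluted to nominal 400 μM in PBS pH 7.4 with 2% DMSO, in duplicate, shaken 2 h at 25° C., then filtered. Filtrate quantified by UV absorbance (230-550 nm) against 10-200 μM calibration curves; effective range ~2-400 μM.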

| IC50 [1] | IC50 (A375 (wild type Kras)) | IC50 [3] | IC50 [4] | solubility at 2 h [5] | SMILES | IC50 [2] |
| --- | --- | --- | --- | --- | --- | --- |
| 1 to 10 nM | 1 to 10 nM | 1 to 10 nM | < 1 nM | 10 to 30 µM | Cc1c(-c2ccn(C(C)C)n2)cn2nc(-c3nccn3C)nc(Nc3ccn(C4CC4)n3)c12 [Compound 84, N-(1-Cyclopropyl-1H-pyrazol-3-yl)-6-(1-isopropyl-1H-pyrazol-3-yl)-5-methyl-2-(1-methyl-1H-imidazol-2-yl)pyrrolo[2,1-f][1,2,4]triazin-4-amine] | 1 to 10 nM |
| 1 to 10 nM | 1 to 10 nM | 1 to 10 nM |  | > 30 µM | Cc1c(-c2ccn(C(C)C)n2)cn2nc(-c3nccn3C)nc(Nc3cc4n(n3)CCO4)c12 [Compound 91, N-(6-(1-Isopropyl-1H-pyrazol-3-yl)-5-methyl-2-(1-methyl-1H-imidazol-2-yl)pyrrolo[2,1-f][1,2,4]triazin-4-yl)-2,3-dihydropyrazolo[5,1-b]oxazol-6-amine] |  |

Source: US12459951B2, “Compounds that interact with RAS superfamily proteins for treatment of cancers, inflammatory diseases, rasopathies, and fibrotic disease” (SHY Therapeutics, LLC, priority 2022, dated 2025)
